Laboratory results from PubChem BioAssay (NCI).
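Five concentrations, 48 hours, 96-well plates. TGI marks complete inhibition of growth.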

Columns and labels:
Assay in all cases: growth of human tumour cells (NCI), 48 h
[1] = test system: LOX IMVI melanoma
[2] = test system: SK-MEL-5 melanoma
[3] = test system: OVCAR-3 ovarian
[4] = test system: NCI-H460 lung
[5] = test system: SR leukemia
[6] = test system: SK-MEL-2 melanoma
[7] = test system: HCC-2998 colon
[8] = test system: NCI-H522 lung
[9] = test system: RXF 393 renal
[10] = test system: NCI-H226 lung
[11] = test system: MALME-3M melanoma
[12] = test system: OVCAR-4 ovarian
[13] = test system: SF-295 CNS
[14] = test system: UO-31 renal
[15] = test system: TK-10 renal
[16] = test system: OVCAR-5 ovarian
[17] = test system: HOP-92 NSCLC
[18] = test system: MOLT-4 leukemia
[19] = test system: HCT-116 colon
[20] = test system: SN12C renal

| Structure (SMILES) | TGI [1] [µM] | TGI [2] [µM] | TGI [3] [µM] | TGI [4] [µM] | TGI [5] [µM] | TGI [6] [µM] | TGI [7] [µM] | TGI [8] [µM] | TGI [9] [µM] | TGI [10] [µM] | TGI [11] [µM] | TGI [12] [µM] | TGI [13] [µM] | TGI [14] [µM] | TGI [15] [µM] | TGI [16] [µM] | TGI [17] [µM] | TGI [18] [µM] | TGI [19] [µM] | TGI [20] [µM] |
| --- | --- | --- | --- | --- | --- | --- | --- | --- | --- | --- | --- | --- | --- | --- | --- | --- | --- | --- | --- | --- |
| O=C(N/N=C/c1cc(Br)cc(Br)c1[O-])c1ccccc1O.O=C(N/N=C/c1cc(Br)cc(Br)c1[O-])c1ccccc1O.[Cu+2] | 1.61 | 0.844 | 0.702 | 13.6 | 1.17 | 1.93 | 1.48 | 0.59 | 0.926 | 1.98 | 1.35 | 0.56 | 1.24 | 1.5 | 1.58 | 2.03 | 1.28 | 2.54 |  |  |
| O=c1c(C(c2ccc(Cl)cc2)c2c(O)c3ccccc3n(-c3ccccc3)c2=O)c(O)c2ccccc2n1-c1ccccc1 | > 100 | > 100 | > 100 |  | > 100 | 86.1 | > 100 | > 100 | > 100 | > 100 | 60.1 | > 100 | > 100 | > 100 | > 100 | > 100 | > 100 | > 100 | > 100 | > 100 |
| CN1C2CCC1CC(C)(O)C2 (centres undefined) | > 100 |  | > 100 | > 100 | > 100 | > 100 | > 100 |  | > 100 | > 100 | > 100 |  | > 100 | > 100 | > 100 |  |  | > 100 | > 100 | > 100 |
| COc1ccc(N2C(=O)CSC2c2c[nH]c3ccccc23)cc1 (centres undefined) | > 100 | > 100 | > 100 | > 100 | > 100 |  | > 100 | 84.9 | > 100 |  |  | > 100 | > 100 | > 100 | > 100 | > 100 | > 100 | > 100 | > 100 | > 100 |
